Laboratory results reported in ChEMBL document CHEMBL4138296, “Nonacidic Chemotype Possessing N-Acylated Piperidine Moiety as Potent Farnesoid X Receptor (FXR) Antagonists” (ACS Med Chem Lett, 2018).
Activity calls are given as the source filed them. The rule behind the calls is not given here.

Columns and labels:
[1] = biological target: T1, Bile acid receptor (Homo sapiens, UniProt Q96RI1); assay: Antagonist activity at GST-tagged FXR LBD (unknown origin) assessed as inhibition of GW4064-induced fluorecein-labeled SRC2-2 coactivator recruitment by Lanthascreen TR-FRET assay
T1 sequence (Q96RI1 whole entry): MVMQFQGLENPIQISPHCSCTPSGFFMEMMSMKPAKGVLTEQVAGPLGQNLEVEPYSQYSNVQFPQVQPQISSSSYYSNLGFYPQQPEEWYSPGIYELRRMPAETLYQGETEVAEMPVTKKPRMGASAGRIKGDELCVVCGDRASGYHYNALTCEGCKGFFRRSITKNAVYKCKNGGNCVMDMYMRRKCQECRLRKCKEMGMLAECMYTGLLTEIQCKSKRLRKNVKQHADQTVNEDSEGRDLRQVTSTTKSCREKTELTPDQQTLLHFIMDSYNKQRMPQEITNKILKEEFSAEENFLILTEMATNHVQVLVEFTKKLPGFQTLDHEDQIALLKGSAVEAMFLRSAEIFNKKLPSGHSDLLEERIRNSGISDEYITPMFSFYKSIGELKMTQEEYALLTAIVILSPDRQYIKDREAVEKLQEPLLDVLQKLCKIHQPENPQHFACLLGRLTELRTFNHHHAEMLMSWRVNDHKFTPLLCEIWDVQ

[2] = test system: Hep 3B2; assay: Cytotoxicity against human Hep3B cells assessed as reduction in cell viability by MTT assay; format: functional, cell-based
[3] = biological target: T2, Retinoic acid receptor alpha (Homo sapiens) (UniProt P10276); assay: Antagonist activity at RARalpha (unknown origin) assessed as inhibition of ATRA-induced response at 1 uM by luciferase reporter gene assay
T2 sequence (whole entry): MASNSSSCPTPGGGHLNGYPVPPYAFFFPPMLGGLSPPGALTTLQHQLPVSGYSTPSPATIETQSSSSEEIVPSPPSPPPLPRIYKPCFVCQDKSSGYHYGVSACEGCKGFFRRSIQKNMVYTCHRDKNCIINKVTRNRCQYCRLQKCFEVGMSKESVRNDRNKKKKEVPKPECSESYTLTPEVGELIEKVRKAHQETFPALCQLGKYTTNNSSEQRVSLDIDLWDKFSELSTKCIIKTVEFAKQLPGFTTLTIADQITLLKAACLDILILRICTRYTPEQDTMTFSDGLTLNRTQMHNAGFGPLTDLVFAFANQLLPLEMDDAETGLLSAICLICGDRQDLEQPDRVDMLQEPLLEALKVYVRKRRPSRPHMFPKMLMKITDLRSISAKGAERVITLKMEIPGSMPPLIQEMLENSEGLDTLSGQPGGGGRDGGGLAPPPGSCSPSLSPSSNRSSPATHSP

[4] = biological target: T3, Peroxisome proliferator-activated receptor delta (Homo sapiens) (UniProt Q03181); assay: Agonist activity at PPARdelta (unknown origin) at 1 uM by luciferase reporter gene assay
T3 sequence (whole entry): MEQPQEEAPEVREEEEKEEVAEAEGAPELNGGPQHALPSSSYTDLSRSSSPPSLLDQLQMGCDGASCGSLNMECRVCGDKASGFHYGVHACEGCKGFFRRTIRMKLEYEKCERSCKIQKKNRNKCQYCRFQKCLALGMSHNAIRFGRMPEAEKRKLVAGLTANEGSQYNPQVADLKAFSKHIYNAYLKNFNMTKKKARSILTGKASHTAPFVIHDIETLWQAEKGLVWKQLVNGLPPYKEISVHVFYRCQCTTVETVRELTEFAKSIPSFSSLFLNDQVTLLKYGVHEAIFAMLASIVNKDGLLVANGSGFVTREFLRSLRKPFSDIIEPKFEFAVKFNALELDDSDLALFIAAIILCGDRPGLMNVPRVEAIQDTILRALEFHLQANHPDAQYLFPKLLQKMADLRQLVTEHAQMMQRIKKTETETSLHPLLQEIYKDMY

[5] = biological target: T4, Oxysterols receptor LXR-alpha (Homo sapiens) (UniProt Q13133); assay: Agonist activity at LXRalpha (unknown origin) at 1 uM by luciferase reporter gene assay
T4 sequence (whole entry): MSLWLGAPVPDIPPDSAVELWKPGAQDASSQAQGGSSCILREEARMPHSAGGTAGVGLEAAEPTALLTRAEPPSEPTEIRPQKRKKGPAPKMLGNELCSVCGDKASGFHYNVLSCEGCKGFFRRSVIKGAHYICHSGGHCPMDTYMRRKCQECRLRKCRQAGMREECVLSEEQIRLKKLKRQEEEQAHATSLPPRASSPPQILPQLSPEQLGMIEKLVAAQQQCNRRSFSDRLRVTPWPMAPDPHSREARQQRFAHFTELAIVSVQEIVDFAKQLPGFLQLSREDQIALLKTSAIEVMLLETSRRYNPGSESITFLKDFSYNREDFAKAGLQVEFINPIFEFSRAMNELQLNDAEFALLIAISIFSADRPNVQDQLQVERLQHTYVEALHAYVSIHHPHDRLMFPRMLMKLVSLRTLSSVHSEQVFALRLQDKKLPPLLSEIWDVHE

[6] = biological target: T5, G-protein coupled bile acid receptor 1 (Homo sapiens) (UniProt Q8TDU6); assay: Antagonist activity at TGR5 (unknown origin) assessed as inhibition of lithocholic acid-induced response at 1 uM by luciferase reporter gene assay; format: functional
T5 sequence (whole entry): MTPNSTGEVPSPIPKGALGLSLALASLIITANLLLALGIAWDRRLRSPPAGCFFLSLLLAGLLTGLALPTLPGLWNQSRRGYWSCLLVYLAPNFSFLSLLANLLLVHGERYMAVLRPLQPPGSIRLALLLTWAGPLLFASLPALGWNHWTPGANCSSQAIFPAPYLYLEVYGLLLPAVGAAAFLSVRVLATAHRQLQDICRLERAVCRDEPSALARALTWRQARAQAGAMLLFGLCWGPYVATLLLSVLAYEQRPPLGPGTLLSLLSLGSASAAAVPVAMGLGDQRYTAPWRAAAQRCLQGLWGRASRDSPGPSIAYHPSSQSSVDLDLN

[7] = test system: 3T3-L1; assay: Antiadipogenic activity in mouse 3T3L1 cells assessed as reduction in intracellular lipid droplets after 6 days by Oil Red O staining based assay; format: functional, cell-based

IC50 [1]: 35 nM | inhibition [3]: inactive | Activity [4]: inactive | Activity [5]: inactive | inhibition [6]: inactive
Structure (SMILES): Cc1ccc2nc([C@H](CC3CCN(C(=O)C(C)C)CC3)N3C(=O)CN(c4ccc(Oc5ccccc5)cc4)C3=O)n(C)c2c1
IC50 [2]: > 100000 nM | Activity [7]: Dose-dependent effect
